In the supplement of paper PMC11061612:

How the values were obtained:
Experiment in all cases: Bliss excess, mean over the matrix (fraction); higher = more synergy
[1] = tested on: CAL-62 (Thyroid Gland Carcinoma)
Procedure, shortened: (§1)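 Bliss excess equals the observed combination effect minus the expected value EA + EB − EA·EB, where EA and EB are the effects of each agent alone. Combination Emax is the second-highest inhibition within the matrix. Inhibition was scaled from CellTiter-Glo 2.0 luminescence, with 0 set by vehicle wells and 1 by blank wells, after 72 hours of two-drug dosing of cells plated in 1536-well plates.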

[2] = tested on: SU-DHL-10 (B-Cell Non-Hodgkin's Lymphoma)
Procedure, shortened: as §1

[3] = tested on: RERF-LC-Sq1 (Squamous Cell Lung Carcinoma)
Procedure, shortened: as §1

[4] = tested on: WM793B (Melanoma)
Procedure, shortened: as §1

[5] = tested on: 23132-87 (Gastric Carcinoma)
Procedure, shortened: as §1

[6] = tested on: WM278 (Melanoma)
Procedure, shortened: as §1

[7] = tested on: L-1236 (Hodgkin's Lymphoma)
Procedure, shortened: as §1

[8] = tested on: REH (B-Lymphoblastic Leukemia)
Procedure, shortened: as §1

[9] = tested on: HSC-39 (Gastric Carcinoma)
Procedure, shortened: as §1

[10] = tested on: LXF-289 (Lung Adenocarcinoma)
Procedure, shortened: as §1

[11] = tested on: LB996-RCC (Kidney Carcinoma)
Procedure, shortened: as §1

[12] = tested on: TE-8 (Esophageal Squamous Cell Carcinoma)
Procedure, shortened: as §1

[13] = tested on: SF268 (Low Grade Glioma)
Procedure, shortened: as §1

[14] = tested on: GP5d (Colorectal Carcinoma)
Procedure, shortened: as §1

[15] = tested on: KE-37 (T-Lymphoblastic Leukemia)
Procedure, shortened: as §1

[16] = tested on: PSN1 (Pancreatic Carcinoma)
Procedure, shortened: as §1

[17] = tested on: VAL (B-Cell Non-Hodgkin's Lymphoma)
Procedure, shortened: as §1

[18] = tested on: A2058 (Melanoma)
Procedure, shortened: as §1

[19] = tested on: LK-2 (Squamous Cell Lung Carcinoma)
Procedure, shortened: as §1

[20] = tested on: CAL-120 (Breast Carcinoma)
Procedure, shortened: as §1

Structure (SMILES) | Bliss excess [1] | Bliss excess [2] | Bliss excess [3] | Bliss excess [4] | Bliss excess [5] | Bliss excess [6] | Bliss excess [7] | Bliss excess [8] | Bliss excess [9] | Bliss excess [10] | Bliss excess [11] | Bliss excess [12] | Bliss excess [13] | Bliss excess [14] | Bliss excess [15] | Bliss excess [16] | Bliss excess [17] | Bliss excess [18] | Bliss excess [19] | Bliss excess [20]
Cc1c2c(nn1C)CSCc1cc(n(C)n1)CSc1cc(c3ccccc3c1)OCCCc1c(C(=O)O)n(C)c3c-2c(Cl)ccc13 [AZD5991] + CC1(C)CCC(CN2CCN(c3ccc(C(=O)NS(=O)(=O)c4ccc(NCC5CCOCC5)c([N+](=O)[O-])c4)c(Oc4cnc5[nH]ccc5c4)c3)CC2)=C(c2ccc(Cl)cc2)C1 [Venetoclax] (first compound max 1 µM, 7x7, partner max 1 µM) | -0.0325 | -0.0173 | -0.0191 | -0.0016 | 0.0019 | -0.0393 | 0.0632 | 0.206 | 0.0266 | 0.0108 | -0.0251 | 0.0098 | -0.0096 | -0.0134 | 0.0273 | -0.0873 | 0.0963 | 0.0967 | 0.0293 | -0.0284
CC1(C)CCC(CN2CCN(c3ccc(C(=O)NS(=O)(=O)c4ccc(NCC5CCOCC5)c([N+](=O)[O-])c4)c(Oc4cnc5[nH]ccc5c4)c3)CC2)=C(c2ccc(Cl)cc2)C1 [Venetoclax] + C[C@@H]1COCCN1C2=NC(=NC(=C2)C3(CC3)[S@](=N)(=O)C)C4=C5C=CNC5=NC=C4 [AZD6738] (first compound max 1 µM, 7x7, partner max 10 µM) | 0.0023 | 0.0138 | -0.0476 | -0.0044 | -0.0422 | -0.0712 | -0.019 | 0.0493 | 0.0079 | -0.0138 | -0.066 | -0.0603 | -0.0723 | -0.0657 | 0.0293 | -0.0848 | 0.004 | -0.0008 | -0.0205 | -0.0118
CN(C)CCCOc1ccc(-c2ccc3ncc4c(c3c2)n(C2CCOCC2)c(=O)n4C)cn1 [AZD0156] + C=CCn1c(=O)c2cnc(Nc3ccc(N4CCN(C)CC4)cc3)nc2n1-c1cccc(C(C)(C)O)n1 [AZD1775] (first compound max 1 µM, partner max 1 µM) | -0.0006 | -0.0088 | 0.0224 | -0.0081 | 0.0164 | -0.0331 | -0.0514 | -0.0158 | -0.0144 | 0.0066 | -0.0219 | -0.0104 | -0.0665 | -0.0369 | 0.0241 | -0.0242 | -0.0082 | -0.0313 | -0.048 | -0.0638
Cn1cnc2c(F)c(Nc3ccc(Br)cc3Cl)c(C(=O)NOCCO)cc21 [Selumetinib] + CC(C)n1c(=O)n(C)c2cnc3cc(F)c(-c4ccc(OCCCN5CCCCC5)nc4)cc3c21 [AZD1390] (first compound max 10 µM, 7x7, partner max 0.3 µM) | -0.0319 | -0.0183 | 0.0117 | -0.0211 | -0.0449 | -0.0352 | 0.0284 | -0.0323 | 0.0253 | -0.0312 | -0.0262 | 0.0186 | -0.0693 | 0.0142 | 0.0255 | -0.0639 | -0.0424 | -0.0155 | 0.007 | -0.0388
CC1(C)CCC(CN2CCN(c3ccc(C(=O)NS(=O)(=O)c4ccc(NCC5CCOCC5)c([N+](=O)[O-])c4)c(Oc4cnc5[nH]ccc5c4)c3)CC2)=C(c2ccc(Cl)cc2)C1 [Venetoclax] + CN(C)CCCOc1ccc(-c2ccc3ncc4c(c3c2)n(C2CCOCC2)c(=O)n4C)cn1 [AZD0156] (first compound max 1 µM, 7x7, partner max 1 µM) | 0.0063 | -0.0043 | -0.0401 | -0.0499 | -0.0015 | -0.0496 | -0.0182 | 0.0037 | 0.015 | -0.0157 | -0.0398 | -0.0574 | 0.0022 | -0.0274 | -0.0036 | -0.0421 | 0.0308 | 0.0014 | 0.02 | -0.0307
Cc1c2c(nn1C)CSCc1cc(n(C)n1)CSc1cc(c3ccccc3c1)OCCCc1c(C(=O)O)n(C)c3c-2c(Cl)ccc13 [AZD5991] + C=CCn1c(=O)c2cnc(Nc3ccc(N4CCN(C)CC4)cc3)nc2n1-c1cccc(C(C)(C)O)n1 [AZD1775] (first compound max 1 µM, partner max 1 µM) | -0.0385 | 0.0259 | 0.0112 | 0.0054 | 0.0274 | 0.0438 | -0.0319 | -0.112 | 0.0058 | -0.029 | -0.008 | -0.058 | 0.0045 | -0.0133 | 0.0334 | -0.0694 | -0.114 | 0.0959 | -0.0217 | -0.0143
CN(CCO)CC[C@H](CSc1ccccc1)Nc1ccc(S(=O)(=O)NC(=O)c2ccc(N3CCC([C@@H](O)c4ccccc4-c4ccc(Cl)cc4)CC3)cc2)cc1S(=O)(=O)C(F)(F)F [AZD4320] + CCN(CCO)CCCOc1ccc2c(Nc3cc(CC(=O)Nc4cccc(F)c4)[nH]n3)ncnc2c1 [AZD2811] (first compound max 1 µM, 7x7, partner max 1 µM) | 0.0354 | -0.0949 | 0.0012 | 0.0038 | -0.0339 | 0.0469 | -0.0263 | 0.175 | -0.0338 | -0.0532 | 0.0389 | 0.0845 | 0.0843 | 0.0026 | -0.0049 | -0.0029 | -0.0063 | 0.0723 | 0.0358 | 0.0227
COc1cccc(OCCCN)c1-c1cc(Nc2cnc(C#N)cn2)n[nH]1 [Prexasertib] + C[C@@H]1COCCN1C2=NC(=NC(=C2)C3(CC3)[S@](=N)(=O)C)C4=C5C=CNC5=NC=C4 [AZD6738] (first compound max 1 µM, 7x7, partner max 10 µM) | -0.005 | -0.0067 | -0.0492 | -0.05 | -0.0085 | -0.0364 | -0.0199 | 0.0032 | -0.0067 | -0.0228 | 0.0355 | -0.0122 | -0.0421 | -0.0157 | 0.0043 | 0.0334 | -0.0637 | 0.0232 | -0.0182 | 0.0093
Cc1cc2ncnn2cc1Nc1ncc2c(n1)n(C1CCOCC1)c(=O)n2C [AZD7648] + C=CCn1c(=O)c2cnc(Nc3ccc(N4CCN(C)CC4)cc3)nc2n1-c1cccc(C(C)(C)O)n1 [AZD1775] (first compound max 10 µM, partner max 1 µM) | 0.0057 | -0.0191 | 0.0053 | -0.0395 | -0.0401 | -0.027 | -0.0686 | -0.06 | -0.0357 | -0.0396 | -0.0252 | 0.0308 | 0.0296 | -0.0431 | -0.0108 | -0.0577 | -0.0919 | 0.0194 | -0.0018 | 0.0463
NC1(C(=O)N[C@@H](CCO)c2ccc(Cl)cc2)CCN(c2ncnc3[nH]ccc23)CC1 [Capivasertib] + CCN(CCO)CCCOc1ccc2c(Nc3cc(CC(=O)Nc4cccc(F)c4)[nH]n3)ncnc2c1 [AZD2811] (first compound max 10 µM, 7x7, partner max 1 µM) | 0.0437 | -0.0466 | 0.0072 | 0.002 | 0.008 | -0.065 | -0.024 | -0.0591 | -0.0799 | 0.0856 | -0.0146 | -0.0406 | -0.0667 | -0.0899 | 0.0084 | -0.0309 | -0.162 | 0.0072 | -0.0303 | 0.0165
CN(CCO)CC[C@H](CSc1ccccc1)Nc1ccc(S(=O)(=O)NC(=O)c2ccc(N3CCC([C@@H](O)c4ccccc4-c4ccc(Cl)cc4)CC3)cc2)cc1S(=O)(=O)C(F)(F)F [AZD4320] + C1CN(CCC1(C(=O)N[C@@H](CCO)C2=CC=C(C=C2)Cl)N)C3=NC=NC4=C3C=CN4 [Capivasertib] (first compound max 1 µM, 7x7, partner max 3 µM) | -0.0463 | 0.0129 | -0.0223 | -0.0384 | -0.0483 | -0.0378 | -0.0476 | 0.0197 | -0.0072 | -0.0904 | 0.0014 | -0.0074 | -0.0502 | -0.0396 | 0.0185 | -0.0264 | 0.0595 | -0.032 | -0.0077 | -0.0649
C[C@@H](c1ccc2nccn2c1)n1nnc2ncc(-c3cnn(C)c3)nc21 [Savolitinib] + Cc1c2c(nn1C)CSCc1cc(n(C)n1)CSc1cc(c3ccccc3c1)OCCCc1c(C(=O)O)n(C)c3c-2c(Cl)ccc13 [AZD5991] (first compound max 1 µM, 7x7, partner max 1 µM) | -0.022 | -0.0034 | -0.009 | -0.0658 | 0.0014 | -0.0386 | -0.0017 | -0.0369 | -0.0133 | 0.0178 | -0.0372 | -0.0142 | -0.0595 | -0.0912 | -0.0335 | -0.0182 | -0.0491 | -0.0043 | 0.007 | -0.0387
CN(CCO)CC[C@H](CSc1ccccc1)Nc1ccc(S(=O)(=O)NC(=O)c2ccc(N3CCC([C@@H](O)c4ccccc4-c4ccc(Cl)cc4)CC3)cc2)cc1S(=O)(=O)C(F)(F)F [AZD4320] + Cc1cc2ncnn2cc1Nc1ncc2c(n1)n(C1CCOCC1)c(=O)n2C [AZD7648] (first compound max 1 µM, 7x7, partner max 10 µM) | -0.0086 | 0.0212 | -0.0418 | -0.0234 | -0.0311 | -0.0277 | -0.0299 | 0.0041 | 0.0221 | -0.0326 | -0.0232 | -0.0357 | -0.0371 | -0.052 | 0.0363 | -0.0361 | 0.0316 | -0.0231 | -0.0075 | -0.0367
COc1nnc2ccc(N3CCC(c4ccc(OCCN5CCN(C)C(=O)[C@H]5C)cc4)CC3)nn12 [AZD5153] + Cn1cnc2c(F)c(Nc3ccc(Br)cc3Cl)c(C(=O)NOCCO)cc21 [Selumetinib] (first compound max 1 µM, 7x7, partner max 10 µM) | 0.0286 | 0.0107 | 0.102 | -0.074 | -0.036 | -0.0471 | -0.0252 | -0.0495 | -0.0013 | -0.0468 | -0.0728 | 0.032 | -0.0504 | -0.0805 | -0.0459 | 0.0717 | -0.0157 | 0.0358 | 0.0918 | 0.0386
